# Read-outs that look alike come from different tables or passages of the source.
# What was measured:
# Escherichia coli = assay: Germicidal suspension assay, E. coli; assay type: cell-based; details: for % survival at 1 min: 37° C.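 As to all read-outs here: surviving cells were scored as colonies on nutrient agar after 24 h at 37° C, survival given as percent of untreated controls.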
# Description: E. coli cells from an overnight Trypticase soy nutrient agar (TSA) were resuspended to a density measured as an absorbance of 1.0 at 600 nm in sterile ddH2 O. The reaction of the cells with each of the bactericidal test formulations analyzed was started by addition of 30 μl of cells to 970 μl of test formulation. The reaction mixture was incubated at 37° C for at least 1 minute and then centrifuged in a microfuge for 1 minute. The cell pellet was washed by resuspension in 1 ml of neutralization buffer. (The neutralization buffer: 50 mM Tris-HCl, pH 7.0, 5 mM MgSO4, 20 mM CaCl2, 0.1 M NaCl and 0.1% gelatin was prepared by first making Tris buffer and adjusting the pH. The salts and gelatin were then added and the solution stirred with heat until the solution was clear. The solution was then autoclaved for 20 min. The neutralization buffer was used without dilution.) The cells were centrifuged in a microfuge for 1 minute and resuspended in 1 ml of neutralization buffer. The viable count was determined by spreading 100 μl of bacterial suspension and serial dilutions thereof in neutralization buffer on nutrient agar and scoring surviving colonies after 24 h at 37° C. Percent survival relative to untreated controls was calculated from the scored values.
# E. coli strain ATCC8739 = assay: Nisin-citrate agar growth inhibition assay; assay type: cell-based, Escherichia coli
# Description: The nisin-citrate agar assay is performed as follows. E. coli is resuspended to an optical density of 1.0 at A600. A 100 μl sample of the bacterial suspension is spread uniformly on Trypticase Soy nutrient agar (TSA) supplemented with various concentrations of citrate (e.g. 0.1%, 0.3%, 1.0%, 3.0%) and incubated for 1 hour at 37° C. A nisin stock solution and serial dilutions thereof in 0.1% bovine serum albumin (BSA), are prepared and 5 μl are taken from each and deposited onto the growing bacterial lawn. The TSA plates are then incubated for 24 hours at 37° C. After 24 hours at 37° C., E. coli grown on TSA supplemented with citrate form a confluent lawn. […] The effectiveness of nisin against the gram negative bacteria can be assessed from determining the minimum amount of nisin required to produce a clear zone of growth inhibition. As the concentration of citrate in the nutrient agar is increased, less nisin is required to inhibit the growth of E. coli, as is illustrated by the data shown in Table 6.
# [1] = 0.1% w/v acetate pH 3.5, nisin 100 μg/ml and/or EDTA 1.0 mM where present, initial 2 × 10^7 cfu/ml
# [2] = 0.1% w/v lactate pH 3.5, nisin 100 μg/ml and/or EDTA 1.0 mM where present, initial 5 × 10^7 cfu/ml
# [3] = 0.1% w/v succinate pH 3.5, nisin 100 μg/ml and/or EDTA 1.0 mM where present, initial 3.4 × 10^6 cfu/ml
# [4] = 0.3% w/v acetate pH 3.5, nisin 100 μg/ml and/or EDTA 1.0 mM where present, initial 2 × 10^7 cfu/ml
# [5] = 0.3% w/v lactate pH 3.5, nisin 100 μg/ml and/or EDTA 1.0 mM where present, initial 5 × 10^7 cfu/ml
# [6] = 0.3% w/v succinate pH 3.5, nisin 100 μg/ml and/or EDTA 1.0 mM where present, initial 3.4 × 10^6 cfu/ml
# [7] = 1.0% w/v acetate pH 3.5, nisin 100 μg/ml and/or EDTA 1.0 mM where present, initial 2 × 10^7 cfu/ml
# [8] = 1.0% w/v lactate pH 3.5, nisin 100 μg/ml and/or EDTA 1.0 mM where present, initial 5 × 10^7 cfu/ml
# [9] = 1.0% w/v succinate pH 3.5, nisin 100 μg/ml and/or EDTA 1.0 mM where present, initial 3.4 × 10^6 cfu/ml
# [10] = 3.0% w/v acetate pH 3.5, nisin 100 μg/ml and/or EDTA 1.0 mM where present, initial 2 × 10^7 cfu/ml
# [11] = 3.0% w/v lactate pH 3.5, nisin 100 μg/ml and/or EDTA 1.0 mM where present, initial 5 × 10^7 cfu/ml
# [12] = 3.0% w/v succinate pH 3.5, nisin 100 μg/ml and/or EDTA 1.0 mM where present, initial 3.4 × 10^6 cfu/ml
# [13] = pH 2.0, 20 mM Na acetate buffer, nisin 100 μg/ml and/or EDTA 1.0 mM, initial 4 × 10^7 cfu/ml
# [14] = pH 3.0, 20 mM Na acetate buffer, nisin 100 μg/ml and/or EDTA 1.0 mM, initial 4 × 10^7 cfu/ml
compound,measurement,setting,value
O=C(O)CN(CCN(CC(=O)O)CC(=O)O)CC(=O)O [EDTA],% survival at 1 min,Escherichia coli; [1],40%
same,% survival at 1 min,Escherichia coli; [2],5.1%
same,% survival at 1 min,Escherichia coli; [3],56.8%
same,% survival at 1 min,Escherichia coli; [4],25%
same,% survival at 1 min,Escherichia coli; [5],0.46%
same,% survival at 1 min,Escherichia coli; [6],63.6%
same,% survival at 1 min,Escherichia coli; [7],25%
same,% survival at 1 min,Escherichia coli; [8],0.91%
same,% survival at 1 min,Escherichia coli; [9],46.2%
same,% survival at 1 min,Escherichia coli; [10],10.7%
same,% survival at 1 min,Escherichia coli; [11],1.58%
same,% survival at 1 min,Escherichia coli; [12],43.2%
same,survival of E. coli on exposure to the agent by itself,Escherichia coli,unaffected
same,% survival at 1 min,Escherichia coli; [13],0.07%
same,% survival at 1 min,Escherichia coli; [14],5.41%
same,% survival at 5 min,"Helicobacter pylori; strain ATCC43504, EDTA 1.0 mM, nisin 100 μg/ml where present, pH 2.5, first of two experiments (initial 8.6 × 10^4 cfu/ml)",0.023%
same,% survival at 5 min,"Helicobacter pylori; strain ATCC43504, EDTA 1.0 mM, nisin 100 μg/ml where present, pH 2.5, second of two experiments (initial 9.82 × 10^5 cfu/ml)",0.013%
same,% survival at 5 min,"Helicobacter pylori; strain ATCC43504, EDTA 1.0 mM, nisin 100 μg/ml where present, pH 3.0, first of two experiments (initial 8.6 × 10^4 cfu/ml)",< 0.021%
same,% survival at 5 min,"Helicobacter pylori; strain ATCC43504, EDTA 1.0 mM, nisin 100 μg/ml where present, pH 3.0, second of two experiments (initial 9.82 × 10^5 cfu/ml)",< 0.001%
same,% survival at 5 min,"Helicobacter pylori; strain ATCC43504, EDTA 1.0 mM, nisin 100 μg/ml where present, pH 3.5, first of two experiments (initial 8.6 × 10^4 cfu/ml)",94.2%
same,% survival at 5 min,"Helicobacter pylori; strain ATCC43504, EDTA 1.0 mM, nisin 100 μg/ml where present, pH 3.5, second of two experiments (initial 9.82 × 10^5 cfu/ml)",0.015%
same,% survival at 5 min,"Helicobacter pylori; strain ATCC43504, EDTA 1.0 mM, nisin 100 μg/ml where present, pH 4.0, first of two experiments (initial 8.6 × 10^4 cfu/ml)",11.6%
same,% survival at 5 min,"Helicobacter pylori; strain ATCC43504, EDTA 1.0 mM, nisin 100 μg/ml where present, pH 4.0, second of two experiments (initial 9.82 × 10^5 cfu/ml)",16.5%
same,% survival at 5 min,"Helicobacter pylori; strain ATCC43504, EDTA 1.0 mM, nisin 100 μg/ml where present, pH 5.0, first of two experiments (initial 8.6 × 10^4 cfu/ml)",10.0%
same,% survival at 5 min,"Helicobacter pylori; strain ATCC43504, EDTA 1.0 mM, nisin 100 μg/ml where present, pH 5.0, second of two experiments (initial 9.82 × 10^5 cfu/ml)",100%
same,% survival at 5 min,"Helicobacter pylori; strain ATCC43526, pH 7.0, EDTA 1.0 mM, nisin 100 μg/ml where present, initial 3.40 × 10^4 cfu/ml",94.1%
same,% survival at 5 min,"Helicobacter pylori; strain ATCC43526, pH 7.0, EDTA 10 mM, nisin 100 μg/ml where present, initial 3.40 × 10^4 cfu/ml",21.0%
same,% survival at 5 min,"Helicobacter pylori; strain ATCC43526, pH 7.0, EDTA 100 mM, nisin 100 μg/ml where present, initial 3.40 × 10^4 cfu/ml",1.62%
same,% survival at 5 min,"Helicobacter pylori; strain ATCC43579, pH 5.0, EDTA 1.0 mM, nisin 100 μg/ml where present, initial 2.04 × 10^5 cfu/ml",13.63%
same,% survival at 5 min,"Helicobacter pylori; strain ATCC43579, pH 5.0, EDTA 10 mM, nisin 100 μg/ml where present, initial 2.04 × 10^5 cfu/ml",8.82%
same,% survival at 5 min,"Helicobacter pylori; strain ATCC43579, pH 5.0, EDTA 100 mM, nisin 100 μg/ml where present, initial 2.04 × 10^5 cfu/ml",0.43%
nisin,% survival at 1 min,Escherichia coli; [1],9.6%
same,% survival at 1 min,Escherichia coli; [2],4.4%
same,% survival at 1 min,Escherichia coli; [3],18.3%
same,% survival at 1 min,Escherichia coli; [4],70%
same,% survival at 1 min,Escherichia coli; [5],0.24%
same,% survival at 1 min,Escherichia coli; [6],66.6%
same,% survival at 1 min,Escherichia coli; [7],100%
same,% survival at 1 min,Escherichia coli; [8],17.8%
same,% survival at 1 min,Escherichia coli; [9],83.4%
same,% survival at 1 min,Escherichia coli; [10],100%
same,% survival at 1 min,Escherichia coli; [11],26.7%
same,% survival at 1 min,Escherichia coli; [12],28.4%
same,survival of E. coli on exposure to the agent by itself,Escherichia coli,unaffected
same,% survival at 1 min,Escherichia coli; [13],0.28%
same,% survival at 1 min,"Escherichia coli; pH 2.5, 20 mM Na acetate buffer, nisin 100 μg/ml and/or EDTA 1.0 mM, initial 4 × 10^7 cfu/ml",3.37%
same,% survival at 1 min,Escherichia coli; [14],4.43%
same,% survival at 1 min,"Escherichia coli; pH 3.5, 20 mM Na acetate buffer, nisin 100 μg/ml and/or EDTA 1.0 mM, initial 4 × 10^7 cfu/ml",100%
same,% survival at 1 min,"Escherichia coli; pH 4.0, 20 mM Na acetate buffer, nisin 100 μg/ml and/or EDTA 1.0 mM, initial 4 × 10^7 cfu/ml",100%
same,% survival at 5 min,Helicobacter pylori; pH 7,5.88
same,% survival at 5 min,"Helicobacter pylori; strain ATCC43504, pH 5.0, citrate 0, nisin 100 μg/ml, second of two experiments (initial 3.26 × 10^5 cfu/ml)",0.043%
same,% survival at 5 min,"Helicobacter pylori; strain ATCC43504, pH 7.0, citrate 0, nisin 100 μg/ml, initial 9.62 × 10^4 cfu/ml",2.08%
same,% survival at 5 min,"Helicobacter pylori; strain ATCC43579, citrate 0, nisin 100 μg/ml, pH 5.0, average of 5 experiments",0.30%
same,% survival at 5 min,"Helicobacter pylori; strain ATCC43579, pH 5.0, citrate 0, nisin 100 μg/ml, 37° C., initial 1.04 × 10^4 cfu/ml",9.62%
same,% survival at 5 min,"Helicobacter pylori; strain ATCC43579, pH 5.0, nisin 10 μg/ml, citrate 0.1% where present, 37° C.",1.31%
same,% survival at 5 min,"Helicobacter pylori; strain ATCC43579, pH 5.0, nisin 30 μg/ml, citrate 0.1% where present, 37° C.",0.39%
same,% survival at 5 min,"Helicobacter pylori; strain ATCC43579, pH 5.0, nisin 100 μg/ml, citrate 0.1% where present, 37° C.",0.085%
same,% survival at 5 min,"Helicobacter pylori; strain ATCC43579, pH 5.0, nisin 300 μg/ml, citrate 0.1% where present, 37° C.",0.0056%
same,% survival at 5 min,"Helicobacter pylori; strain ATCC43579, pH 7.0, citrate 0, nisin 100 μg/ml, 37° C.",0.78%
same,Nisin NIC (nominal inhibitory concentration of nisin minimally required to prevent growth),E. coli strain ATCC8739; Trypticase Soy Agar supplemented with 0.1% citrate,370 µg/mL
same,Nisin NIC (nominal inhibitory concentration of nisin minimally required to prevent growth),E. coli strain ATCC8739; Trypticase Soy Agar supplemented with 0.3% citrate,123 µg/mL
same,Nisin NIC (nominal inhibitory concentration of nisin minimally required to prevent growth),E. coli strain ATCC8739; Trypticase Soy Agar supplemented with 1.0% citrate,13.7 µg/mL
same,Nisin NIC (nominal inhibitory concentration of nisin minimally required to prevent growth),E. coli strain ATCC8739; Trypticase Soy Agar supplemented with 3.0% citrate,0.06 µg/mL
same,Nisin NIC (nominal inhibitory concentration of nisin minimally required to prevent growth),"E. coli strain ATCC8739; Trypticase Soy Agar, 0% citrate","3,333 μg/ml"

# Reference: US5304540A, “Pharmaceutical bacteriocin compositions and methods for using the same” (Applied Microbiology, Inc., priority 1993, dated 1994)
